{"source": "patent US9976141B2", "about": "“Compositions and methods for inhibiting gene expression of Hif2alpha” (Arrowhead Madison Inc., priority 2015, dated 2018)", "test_system": "human EPAS1 (Hif2α) cDNA in psiCHECK2 (Renilla luciferase/EPAS1 fusion mRNA) in Hep3B cells", "assay": "Efficacy screen of Hif2α RNAi triggers in vitro, dual-luciferase reporter assay (1 nM and 0.1 nM)", "format": "cell-based", "conditions": "Hep3B cells co-transfected with EPAS1-psiCHECK2, Renilla luciferase normalized to firefly luciferase", "summary_of_the_method": "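Knockdown read by dual-luciferase assay: Renilla signal from the Renilla/EPAS1 fusion transcript divided by firefly luciferase expressed from the same plasmid. Triggers (modified canonical siRNAs, 1 nM or 0.1 nM) were co-transfected with 25 ng reporter plasmid per well into human hepatocellular carcinoma Hep3B cells.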", "note": "Strand notation (5' to 3'): a small letter for the sugar, then the base; units joined by * are phosphorothioate-linked, units joined directly phosphodiester-linked; [ ] holds rarer units or linkages, { } end groups; capitals alone tell only the bases. d = 2'-deoxy (DNA); m = 2'-O-methyl; f = 2'-fluoro", "data": [{"substance": "2400 (sense fCmUfAmCfCmUfGmUfCmAfAmCfGmUfAmAfCmGfAdT; antisense dTfCmGfUmUfAmCfGmUfUmGfAmCfAmGfGmUfAmGdT*dT; siRNA) [compound 2400]", "values": [{"measurement": "Relative Rluc-Hif2α", "setting": "0.1 nM RNAi trigger", "value": "0.478 ± 0.028"}, {"measurement": "Relative Rluc-Hif2α", "setting": "1 nM RNAi trigger", "value": "0.165 ± 0.020"}]}, {"substance": "2401 (sense fUmAfCmCfUmGfUmCfAmAfCmGfUmAfAmCfGmAfAdT; antisense dTfUmCfGmUfUmAfCmGfUmUfGmAfCmAfGmGfUmAdT*dT; siRNA) [compound 2401]", "values": [{"measurement": "Relative Rluc-Hif2α", "setting": "0.1 nM RNAi trigger", "value": "0.375 ± 0.062"}, {"measurement": "Relative Rluc-Hif2α", "setting": "1 nM RNAi trigger", "value": "0.174 ± 0.003"}]}, {"substance": "2402 (sense fAmCfCmUfGmUfCmAfAmCfGmUfAmAfCmGfAmUfAdT; antisense dTfAmUfCmGfUmUfAmCfGmUfUmGfAmCfAmGfGmUdT*dT; siRNA) [compound 2402]", "values": [{"measurement": "Relative Rluc-Hif2α", "setting": "0.1 nM RNAi trigger", "value": "0.389 ± 0.060"}, {"measurement": "Relative Rluc-Hif2α", "setting": "1 nM RNAi trigger", "value": "0.128 ± 0.015"}]}, {"substance": "2403 (sense fCmCfUmGfUmCfAmAfCmGfUmAfAmCfGmAfUmUfAdT; antisense dTfAmAfUmCfGmUfUmAfCmGfUmUfGmAfCmAfGmGdT*dT; siRNA) [compound 2403]", "values": [{"measurement": "Relative Rluc-Hif2α", "setting": "0.1 nM RNAi trigger", "value": "0.930 ± 0.132"}, {"measurement": "Relative Rluc-Hif2α", "setting": "1 nM RNAi trigger", "value": "0.568 ± 0.106"}]}, {"substance": "2404 (sense fCmUfGmUfCmAfAmCfGmUfAmAfCmGfAmUfUmUfAdT; antisense dTfAmAfAmUfCmGfUmUfAmCfGmUfUmGfAmCfAmGdT*dT; siRNA) [compound 2404]", "values": [{"measurement": "Relative Rluc-Hif2α", "setting": "0.1 nM RNAi trigger", "value": "0.234 ± 0.045"}, {"measurement": "Relative Rluc-Hif2α", "setting": "1 nM RNAi trigger", "value": "0.104 ± 0.019"}]}, {"substance": "2405 (sense fUmGfUmCfAmAfCmGfUmAfAmCfGmAfUmUfUmCfAdT; antisense dTfGmAfAmAfUmCfGmUfUmAfCmGfUmUfGmAfCmAdT*dT; siRNA) [compound 2405]", "values": [{"measurement": "Relative Rluc-Hif2α", "setting": "0.1 nM RNAi trigger", "value": "0.261 ± 0.044"}, {"measurement": "Relative Rluc-Hif2α", "setting": "1 nM RNAi trigger", "value": "0.138 ± 0.035"}]}, {"substance": "2406 (sense fUmCfAmAfCmGfUmAfAmCfGmAfUmUfUmCfAmUfAdT; antisense dTfAmUfGmAfAmAfUmCfGmUfUmAfCmGfUmUfGmAdT*dT; siRNA) [compound 2406]", "values": [{"measurement": "Relative Rluc-Hif2α", "setting": "0.1 nM RNAi trigger", "value": "0.241 ± 0.022"}, {"measurement": "Relative Rluc-Hif2α", "setting": "1 nM RNAi trigger", "value": "0.168 ± 0.044"}]}, {"substance": "2407 (sense fAmCfGmUfAmAfCmGfAmUfUmUfCmAfUmGfAmAfAdT; antisense dTfUmUfCmAfUmGfAmAfAmUfCmGfUmUfAmCfGmUdT*dT; siRNA) [compound 2407]", "values": [{"measurement": "Relative Rluc-Hif2α", "setting": "0.1 nM RNAi trigger", "value": "0.222 ± 0.027"}, {"measurement": "Relative Rluc-Hif2α", "setting": "1 nM RNAi trigger", "value": "0.124 ± 0.021"}]}, {"substance": "2408 (sense fUmAfUmUfAmUfAmUfUmGfUmCfGmAfAmUfUmCfAdT; antisense dTfGmAfAmUfUmCfGmAfCmAfAmUfAmUfAmAfUmAdT*dT; siRNA) [compound 2408]", "values": [{"measurement": "Relative Rluc-Hif2α", "setting": "0.1 nM RNAi trigger", "value": "0.730 ± 0.045"}, {"measurement": "Relative Rluc-Hif2α", "setting": "1 nM RNAi trigger", "value": "0.282 ± 0.004"}]}, {"substance": "2409 (sense fUmUfAmUfAmUfUmGfUmCfGmAfAmUfUmCfCmUfAdT; antisense dTfAmGfGmAfAmUfUmCfGmAfCmAfAmUfAmUfAmAdT*dT; siRNA) [compound 2409]", "values": [{"measurement": "Relative Rluc-Hif2α", "setting": "0.1 nM RNAi trigger", "value": "0.301 ± 0.085"}, {"measurement": "Relative Rluc-Hif2α", "setting": "1 nM RNAi trigger", "value": "0.104 ± 0.020"}]}, {"substance": "2410 (sense fUmAfUmUfGmUfCmGfAmAfUmUfCmCfUmAfCmUfAdT; antisense dTfAmGfUmAfGmGfAmAfUmUfCmGfAmCfAmAfUmAdT*dT; siRNA) [compound 2410]", "values": [{"measurement": "Relative Rluc-Hif2α", "setting": "0.1 nM RNAi trigger", "value": "0.228 ± 0.033"}, {"measurement": "Relative Rluc-Hif2α", "setting": "1 nM RNAi trigger", "value": "0.154 ± 0.022"}]}, {"substance": "2411 (sense fGmAfAmUfUmCfCmUfAmCfUmGfAmCfAmAfCmAfAdT; antisense dTfUmGfUmUfGmUfCmAfGmUfAmGfGmAfAmUfUmCdT*dT; siRNA) [compound 2411]", "values": [{"measurement": "Relative Rluc-Hif2α", "setting": "0.1 nM RNAi trigger", "value": "0.796 ± 0.110"}, {"measurement": "Relative Rluc-Hif2α", "setting": "1 nM RNAi trigger", "value": "0.410 ± 0.083"}]}, {"substance": "2412 (sense fUmCfCmUfAmCfUmGfAmCfAmAfCmAfUmUfAmUfAdT; antisense dTfAmUfAmAfUmGfUmUfGmUfCmAfGmUfAmGfGmAdT*dT; siRNA) [compound 2412]", "values": [{"measurement": "Relative Rluc-Hif2α", "setting": "0.1 nM RNAi trigger", "value": "0.515 ± 0.037"}, {"measurement": "Relative Rluc-Hif2α", "setting": "1 nM RNAi trigger", "value": "0.291 ± 0.014"}]}, {"substance": "2413 (sense fUmAfUmAfAmCfUmGfUmAfUmGfGmGfAmGfCmUfAdT; antisense dTfAmGfCmUfCmCfCmAfUmAfCmAfGmUfUmAfUmAdT*dT; siRNA) [compound 2413]", "values": [{"measurement": "Relative Rluc-Hif2α", "setting": "0.1 nM RNAi trigger", "value": "0.675 ± 0.104"}, {"measurement": "Relative Rluc-Hif2α", "setting": "1 nM RNAi trigger", "value": "0.317 ± 0.055"}]}, {"substance": "2414 (sense fUmAfAmCfUmGfUmAfUmGfGmGfAmGfCmUfUmAfAdT; antisense dTfUmAfAmGfCmUfCmCfCmAfUmAfCmAfGmUfUmAdT*dT; siRNA) [compound 2414]", "values": [{"measurement": "Relative Rluc-Hif2α", "setting": "0.1 nM RNAi trigger", "value": "0.422 ± 0.070"}, {"measurement": "Relative Rluc-Hif2α", "setting": "1 nM RNAi trigger", "value": "0.167 ± 0.038"}]}, {"substance": "2415 (sense fUmGfUmAfUmGfGmGfAmGfCmUfUmAfAmCfUmUfAdT; antisense dTfAmAfGmUfUmAfAmGfCmUfCmCfCmAfUmAfCmAdT*dT; siRNA) [compound 2415]", "values": [{"measurement": "Relative Rluc-Hif2α", "setting": "0.1 nM RNAi trigger", "value": "0.180 ± 0.097"}, {"measurement": "Relative Rluc-Hif2α", "setting": "1 nM RNAi trigger", "value": "0.119 ± 0.015"}]}, {"substance": "2416 (sense fUmUfGmAfCmAfCmUfGmGfUmAfUmCfUmUfAmUfAdT; antisense dTfAmUfAmAfGmAfUmAfCmCfAmGfUmGfUmCfAmAdT*dT; siRNA) [compound 2416]", "values": [{"measurement": "Relative Rluc-Hif2α", "setting": "0.1 nM RNAi trigger", "value": "0.247 ± 0.031"}, {"measurement": "Relative Rluc-Hif2α", "setting": "1 nM RNAi trigger", "value": "0.166 ± 0.031"}]}, {"substance": "2417 (sense fAmAfGmUfAmUfUmCfUmGfAmUfCmCfUmAfCmCfAdT; antisense dTfGmGfUmAfGmGfAmUfCmAfGmAfAmUfAmCfUmUdT*dT; siRNA) [compound 2417]", "values": [{"measurement": "Relative Rluc-Hif2α", "setting": "0.1 nM RNAi trigger", "value": "0.295 ± 0.057"}, {"measurement": "Relative Rluc-Hif2α", "setting": "1 nM RNAi trigger", "value": "0.253 ± 0.037"}]}]}
